Test results taken from patent US4987148A, “Biocidal 4,5-dichloro-1,2-dithiol-3-one composition” (Yoshitomi Pharmaceutical Industries, Ltd., priority 1989, dated 1991).
Read-outs that look alike come from different tables or passages of the source.

How the values were obtained:
[1] = Storage and stability test in transparent glass vessels at 60° C. (50% compositions, HPLC remaining rate); format: physicochemical
Procedure: In transparent 50 ml-glass vessels, a 50% N-methyl-2-pyrrolidone composition of the dithiol compound (the composition of the present invention), a 50% dimethylformamide composition containing 5 weight % diethylene glycol monomethyl ether, a 50% N-vinyl-2-pyrrolidone composition and a 50% 2-pyrrolidone composition of the dithiol compound (compositions for comparison) were prepared, and the storage and stability tests were conducted.
The tests were conducted by leaving the compositions standing at 60° C. for 15 days and 30 days and examining the remaining rate of the dithiol compound based upon the measurement of area ratio at 317 nm by means of high performance liquid chromatography (HPLC).

[2] = Solubility test: dithiol compound in 100 g of respective solvents at 25° C.; format: physicochemical
Procedure: The solubilities (weight %) of the dithiol compound in 100 g of the respective solvents shown in Table 1 at 25° C. ar indicated in Table 1.

[3] = Storage and stability test in polyethylene bottle in can at 60° C. (HPLC remaining rate; half life); format: physicochemical; conditions: for Half life of dithiol compound: first order
Procedure: The dithiol compound and N-methyl-2-pyrrolidone were mixed at the concentrations as shown in Table 4 to prepare compositions. Each 50 ml of the compositions was served in a polyethylene bottle, and the bottle was further served tightly in a can with a lid.
The storage and stability tests were conducted by leaving the compositions standing at 60° C. for 11 days (or 15 days) and 30 days in the above state and examining the remaining rate of the dithiol compound based upon the measurement of area ratio at 317 nm by means of high performance liquid chromatography (HPLC).
Since the decomposition rate of the dithiol compound fit to the first order reaction, a half life of the dithiol compound (t 1/2), in the each compositions at 60° C., was calculated with the following equation: […]
wherein α represents a remaining percentage of the dithiol compound, k represents a decomposition rate constant of the dithiol compound and t represents a number of days.

[4] = powdery form; cited from earlier work
[5] = cited from earlier work
[6] = cited from earlier work; remark: listed apart in the source
[7] = State of compositions (crystallization, solidification, scoopability, stability) in storage and at low temperature; format: physicochemical; conditions: compositions with N-methyl-2-pyrrolidone
[8] = system: viable microbes in industrial cooling water, washing water, raw water, power water; conditions: raw water and power water, Kokoku No. 14294/1977; cited from earlier work
[9] = Crystallization and redissolution test; format: physicochemical
Procedure: In transparent 50 ml-glass vessels, the dithiol compound and N-methyl-2-pyrrolidone were mixed at the prescribed concentrations, and dissolved, if necessary, under heating. The crystals were yielded by cooling these solutions suitably, under the observation of the state. The crystallizing temperature was measured. The crystallized solutions were heated, and the temperature at which the crystals began to dissolve was measured.

[10] = cited from earlier work; remark: listed apart in the source
[11] = 10 weight % in N-methyl-2-pyrrolidone
[12] = 20 weight % in N-methyl-2-pyrrolidone
[13] = 30 weight % in N-methyl-2-pyrrolidone
[14] = 40 weight % in N-methyl-2-pyrrolidone
[15] = 50 weight % in N-methyl-2-pyrrolidone
[16] = 60 weight % in N-methyl-2-pyrrolidone
[17] = 70 weight % in N-methyl-2-pyrrolidone
[18] = 80 weight % in N-methyl-2-pyrrolidone

## O=c1ssc(Cl)c1Cl [dithiol compound, 4,5-Dichloro-l,2-dithiol-3-one]
[1]; 50% in 2-pyrrolidone, 60° C., 15 days
  Remaining percentage of dithiol compound: 38.9%
[1]; 50% in 2-pyrrolidone, 60° C., 30 days
  Remaining percentage of dithiol compound: 18.0%
[1]; 50% in Dimethylformamide containing 5 weight % diethylene glycol monomethyl ether, 60° C., 15 days
  Remaining percentage of dithiol compound: 94.2%
[1]; 50% in Dimethylformamide containing 5 weight % diethylene glycol monomethyl ether, 60° C., 30 days
  Remaining percentage of dithiol compound: 84.7%
[1]; 50% in N-methyl-2-pyrrolidone, 60° C., 15 days
  Remaining percentage of dithiol compound: 97.3%
[1]; 50% in N-methyl-2-pyrrolidone, 60° C., 30 days
  Remaining percentage of dithiol compound: 93.3%
[1]; N-Vinyl-2-pyrrolidone composition could not be obtained, in a few minutes after mixing
  Observation on mixing with N-vinyl-2-pyrrolidone: exothermic polymerization reaction occurred intensively
[1]; in N-methyl-2-pyrrolidone, left standing 15 days and 30 days, 60° C.
  Decomposition of dithiol compound in the composition of the invention: scarcely decomposed
[2]; in 1,2-Bis(bromoacetoxy)ethane
  Solubility: 21.9 weight %
[2]; in 2-Pyrrolidone
  Solubility: 51.0 weight %
[2]; in 100 g 1,2-Bis(bromoacetoxy)ethane
  Amount by weight of dissolved dithiol compound: 28 g
[2]; in 100 g 2-Pyrrolidone
  Amount by weight of dissolved dithiol compound: 104 g
[2]; in 100 g Dimethylformamide containing 5 weight % diethylene glycol monomethyl ether
  Amount by weight of dissolved dithiol compound: 206 g
[2]; in 100 g N-Methyl-2-pyrrolidone
  Amount by weight of dissolved dithiol compound: 222 g
[2]; in 100 g N-Vinyl-2-pyrrolidone
  Amount by weight of dissolved dithiol compound: 117 g
[2]; in Dimethylformamide containing 5 weight % diethylene glycol monomethyl ether
  Solubility: 67.3 weight %
[2]; in N-Methyl-2-pyrrolidone
  Solubility: 68.9 weight %
[2]; in N-Vinyl-2-pyrrolidone
  Solubility: 53.9 weight %
[3]; 5% in N-methyl-2-pyrrolidone, 15 days
  Remaining percentage of dithiol compound: 70.8%
[3]; 5% in N-methyl-2-pyrrolidone, 30 days
  Remaining percentage of dithiol compound: 58.3%
[3]; 5% in N-methyl-2-pyrrolidone
  Half life of dithiol compound: 39 days
[3]; 10% in N-methyl-2-pyrrolidone, 11 days
  Remaining percentage of dithiol compound: 90.5%
[3]; 10% in N-methyl-2-pyrrolidone, 30 days
  Remaining percentage of dithiol compound: 83.2%
[3]; 10% in N-methyl-2-pyrrolidone
  Half life of dithiol compound: 103 days
[3]; 15% in N-methyl-2-pyrrolidone, 11 days
  Remaining percentage of dithiol compound: 93.7%
[3]; 15% in N-methyl-2-pyrrolidone, 30 days
  Remaining percentage of dithiol compound: 87.4%
[3]; 15% in N-methyl-2-pyrrolidone
  Half life of dithiol compound: 145 days
[3]; 20% in N-methyl-2-pyrrolidone, 11 days
  Remaining percentage of dithiol compound: 93.8%
[3]; 20% in N-methyl-2-pyrrolidone, 30 days
  Remaining percentage of dithiol compound: 88.2%
[3]; 20% in N-methyl-2-pyrrolidone
  Half life of dithiol compound: 153 days
[3]; 25% in N-methyl-2-pyrrolidone, 11 days
  Remaining percentage of dithiol compound: 94.3%
[3]; 25% in N-methyl-2-pyrrolidone, 30 days
  Remaining percentage of dithiol compound: 89.0%
[3]; 25% in N-methyl-2-pyrrolidone
  Half life of dithiol compound: 165 days
[3]; 30% in N-methyl-2-pyrrolidone, 11 days
  Remaining percentage of dithiol compound: 95.6%
[3]; 30% in N-methyl-2-pyrrolidone, 30 days
  Remaining percentage of dithiol compound: 88.8%
[3]; 30% in N-methyl-2-pyrrolidone
  Half life of dithiol compound: 174 days
[3]; 35% in N-methyl-2-pyrrolidone, 11 days
  Remaining percentage of dithiol compound: 95.7%
[3]; 35% in N-methyl-2-pyrrolidone, 30 days
  Remaining percentage of dithiol compound: 89.3%
[3]; 35% in N-methyl-2-pyrrolidone
  Half life of dithiol compound: 181 days
[3]; 40% in N-methyl-2-pyrrolidone, 11 days
  Remaining percentage of dithiol compound: 96.6%
[3]; 40% in N-methyl-2-pyrrolidone, 30 days
  Remaining percentage of dithiol compound: 90.4%
[3]; 40% in N-methyl-2-pyrrolidone
  Half life of dithiol compound: 209 days
[3]; 50% in N-methyl-2-pyrrolidone, 15 days
  Remaining percentage of dithiol compound: 97.3%
[3]; 50% in N-methyl-2-pyrrolidone, 30 days
  Remaining percentage of dithiol compound: 93.3%
[3]; 50% in N-methyl-2-pyrrolidone
  Half life of dithiol compound: 300 days
[4]
  Skin irritancy: highly skin-irritant
[5]; diethylene glycol monomethyl ether / dimethylformamide preparations, long period
  Storage and stability of the dithiol compound: insufficient to storage and stability of the dithiol compound over a long period
[5]; in 1,2-bis(bromoacetoxy)ethane, U.S. Pat. No. 4647577
  Solubility of the dithiol compound: about 22%
[5]; in mixed solvent of diethylene glycol monomethyl ether and dimethylformamide, 25° C., Kokoku No. 23721/1987
  Solubility of the dithiol compound: about 67 weight %
[6]; aqueous solution
  Stability in aqueous solution: very unstable in the obtained aqueous solution and susceptible to hydrolysis in a short period of time
[6]; water
  Solubility in water: below 1%
[7]
  Storage and stability of the effective ingredient: extremely high
[8]
  Slime control: excellent slime control agent
[9]; [11]
  Crystallizing temperature: -29.3 °C
  Crystals-dissolving temperature: -23.7 °C
[9]; [12]
  Crystallizing temperature: -27.8 °C
  Crystals-dissolving temperature: -22.7 °C
[9]; [13]
  Crystallizing temperature: -22.0 °C
  Crystals-dissolving temperature: -16.2 °C
[9]; [14]
  Crystallizing temperature: -18.8 °C
  Crystals-dissolving temperature: -9.2 °C
[9]; [15]
  Crystallizing temperature: -18.3 °C
  Crystals-dissolving temperature: 4.7 °C
[9]; [16]
  Crystallizing temperature: -13.3 °C
  Crystals-dissolving temperature: 12.0 °C
[9]; [17]
  Crystallizing temperature: 6.0 °C
  Crystals-dissolving temperature: 26.5 °C
[9]; [18]
  Crystallizing temperature: 26.8 °C
  Crystals-dissolving temperature: 36.2 °C

## CN(C)C=O [dimethylformamide]
[10]; solvent
  Toxicity: inherently so strong in toxicity

## CN1CCCC1=O [N-Methyl-2-pyrrolidone]
[10]; solvent N-Methyl-2-pyrrolidone
  Odor, inflammability, toxicity: few problems in terms of odor, inflammability, toxicity
